Data set [1] relates to IL-6 production in TNF-a-stimulated MG-63 cells. The settings on record: cited from earlier work.
In another data set the test system is GPx. In words: GPx activity in rat paw tissue homogenate (carrageenan model). In kind it is in vivo. The note with it: for GPx (U/gm Tissue): paw tissue 5 h after carrageenan. As for the experimental part:
The levels of inflammatory mediators (IL-1β, TNF-α, and PGE2) in rat paw tissue homogenate were measured using the following Kits: Rat TNF-α (Tumor Necrosis Factor Alpha) ELISA Kit from Elabscience® Company, Houston, TX, USA, Interleukin 1 Beta (IL-1b) Organism Species: Rattus norvegicus (Rat) from Cloud Clone Crop Company and Rat PGE2 (Prostaglandin E2) ELISA Kit from Fine test® company Hubei, China. In addition, oxidative stress parameters in rat paw tissue homogenate were measured using superoxide dismutase, glutathione peroxidase, and catalase Kits from the Biodiagnostic company, Birmingham, UK.
Rats were slaughtered, and their paw tissues were gathered and weighed five hours after the carrageenan was administered. The tissues underwent processing after being fixed in 10% formalin. Rat paw tissue was homogenized, and its oxidative stress indices (SOD, CAT, and GPx) as well as the levels of inflammatory mediators (IL-1β, TNF-α, and PGE2) were measured.

Data set [2] concerns SARS-CoV-2 main protease Mpro or 3CLpro. The note with it: cited from earlier work.
The next data set concerns MCF-7 cancer cell line. In words: Cytotoxic activity (MTT assay). Type of data set: cell-based. The procedure: (§1) The HPLC was performed in the Institute for Plant Biology, TU Braunschweig, using a Young Lin quaternary pump, vacuum degasser, column oven (40 °C), diode array detector (YL9160 PDA), and a Midas Spark Holland autosampler. UV spectra (λ max) were measured in the central laboratory of the Faculty of Pharmaceutical Science at Mansoura University using spectroscopic methanol with an ultraviolet-visible spectrophotometer (Shimadzu 1601 PC, version TCC-240A, Kyoto, Japan). The NMR unit of Mansoura University’s Faculty of Pharmacy obtained nuclear magnetic resonance spectra (^1H-NMR, ^13C-NMR, DEPT-Q, APT, HSQC, and HMBC) using a Bruker DRX 600 NMR spectrometer (600 and 150 MHz for ^1H and ^13C-NMR, respectively) and with the Bruker Corporation Avance III 400 spectrometer, which measures ^1H and ^13C-NMR at 400 and 100 MHz, respectively. The types of solvents that are used are CDCl3, CD3OD, and DMSO-d6. For normal phase chromatography, silica gel G 60–230 mesh (Merck, Darmstadt, Germany) was packed using a wet or dry method in the specified solvent. The purchase of Normal Human lung fibroblast (WI-38), hepatic cancer cell lines (HePG-2), and mammary gland (MCF-7) cell lines from ATCC was made possible by the Holding firm for biological goods and vaccines (VACSERA), which is based in Cairo, Egypt.
(§2) Using the MTT test, the inhibitory effects of substances on cell growth were ascertained using the cell lines compared to normal lung fibroblast cells (WI-38). The selectivity index was calculated via the Selectivity index (SI) equation: SI equals IC50 normal/IC50 cancer.

The next data set relates to HepG-2 cancer cell line. In words: Cytotoxic activity (MTT assay). In kind it is cell-based. As for the experimental part:
as §1, §2
On the technique in general: Tetrazolium assays rely on reduction of a dye to a coloured formazan, in cell work by metabolically active cells.

The nature of data set [3]: Cytotoxic activity (MTT assay), normal cells. Type of data set: cell-based. The note with it: human, WI-38 normal lung fibroblast cells; MTT; normal cells; read-out: In Vitro Cytotoxicity IC50 (µg/mL) WI-38. The procedure:
as §1, §2

The mark [4] stands for this setting: IC50 normal (WI-38)/IC50 cancer.

In brackets after ≈: the same amount, converted by molar mass.

With `NC(CO)C(O)c1ccc2c(c1)OCO2` (stereo not shown) [Compound 1, 1,3-propanediol-2-amino-1-(3′,4′-methylenedioxyphenyl)], the “inhibition of IL-6 production” value in data set [1] is “strong inhibitory”. In the data set on GPx (40 mg/kg, compared to the control group), this compound gave a GPx activity restored of 73.17%. In addition, the “GPx (U/gm Tissue)” value with GPx (20 mg/kg) is recorded as 77.65 ± 3.18 U/gm Tissue; in the data set on GPx (40 mg/kg), 86.75 ± 6.01 U/gm Tissue. Further, the “inhibitory activity against SARS-CoV-2 main protease” value in data set [2] is “moderate inhibitory activities”. Moreover, the IC50 came to 86.8 ± 3.9 µg/mL (≈ 411 µM) in the data set on MCF-7 cancer cell line (Homo sapiens, MCF7, MTT, read-out: In Vitro Cytotoxicity IC50 (µg/mL) MCF-7); 82.8 ± 4.1 µg/mL (≈ 392 µM) with HepG-2 cancer cell line (Homo sapiens, HepG2, MTT, read-out: In Vitro Cytotoxicity IC50 (µg/mL) HepG-2); 61.7 ± 3.4 µg/mL (≈ 292 µM) in data set [3]. Further, the “Selectivity Index MCF-7” value with MCF-7 cancer cell line (setting [4]) came to 0.71. Further, in the data set with HepG-2 cancer cell line (setting [4]), the “Selectivity Index HepG2” value turned out to be 0.75.

The record behind these values is publication PMC11507441, “Oilseed Cakes: A Promising Source of Antioxidant, and Anti-Inflammatory Agents—Insights from Lactuca sativa” (International Journal of Molecular Sciences, 2024).
